In US10098870B2 (JENKEM TECHNOLOGY CO., LTD. (BEIJING), priority 2013, dated 2018):
Entries after “also recorded” stand apart in the source; their conditions may differ. Where two headings read alike, the source gives them in different places.

Assays:
[1] = Body weight, survival and tolerance of mice bearing plc/prf/5 (Example 6); format: in vivo, nude mouse; settings: for Body weight of animal: 25 mg/kg i.v. QD×5, mean ± SE
From the text: Wherein QW×4W represents intravenous injection once a week for 4 weeks, BIW×4W represents intravenous injection […] for 4 weeks, the same below. (2) Experimental Results

[2] = Body weight, survival and tolerance of mice bearing Hep3B (Example 7); format: in vivo, mouse; settings: 15 mg/kg i.v. (QD×5)×2W, mean ± SE
[3] = tested on: human hepatoma cell plc/prf/5; test: Anti-tumor effect on xenograft tumor model of plc/prf/5 in nude mice (Example 6); settings: for Tumor volume: 25 mg/kg i.v. QD×5, mean ± SE
From the text: 10 days later the mean tumor volume was desired to reach about 161 mm^3, the mice with a smaller or larger tumor were removed and the remaining 24 mice were divided into groups randomly according to tumor volume and administrated.
Wherein QW×4W represents intravenous injection once a week for 4 weeks, BIW×4W represents intravenous injection once every two weeks for 4 weeks, the same below.

[4] = tested on: human hepatoma cell Hep3B; test: Anti-tumor effect on xenograft tumor model of Hep3B in immune deficiency mice (Example 7); settings: for Tumor volume: mean ± SE
[5] = tested on: H460 human non-small cell lung cancer cells; settings: 15 mg/kg i.v. BIW×3W; for Tumor volume: mean ± SE
Method: (§1) 5.0×10^6 of H460 tumor cells were suspended in 0.1 ml of PBS, inoculated to each nude mouse at the right shoulder, and there were totally 34 mice inoculated. 8 days later the mean tumor volume was desired to reach about 143 mm^3, the mice with a smaller or larger tumor were removed and the remaining 24 mice were divided into groups randomly according to tumor volume and administrated.

[6] = Body weight, survival and tolerance of mice bearing H460 (Example 8); settings: 15 mg/kg i.v. BIW×3W; for Body weight of animal: mean ± SE
Method: as §1

[7] = Body weight, survival and tolerance of mice bearing A549 (Example 10);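 on all read-outs here: nude mice, each given 1.0×10^7 A549 tumor cells in the right shoulder region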; settings: 15 mg/kg i.v. BIW×4W; for Body weight of animal: mean ± SE
Method: (§2) 1.0×10^7 of A549 tumor cells were suspended in 0.1 ml of PBS, inoculated to each nude mouse at the right shoulder, and there were totally 36 mice inoculated.

[8] = Body weight, survival and tolerance of mice bearing Calu-6 (Example 9);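 on all read-outs here: nude mice bearing Calu-6 tumours, established by implanting 5.0×10^6 cells at the right shoulder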; settings: 15 mg/kg i.v. BIW×4W; for Body weight of animal: mean ± SE
Method: (§3) 5.0×10^6 of Calu-6 tumor cells were suspended in 0.1 ml of PBS, inoculated to each nude mouse at the right shoulder, and there were totally 34 mice inoculated.

[9] = tested on: A549 human non-small cell lung cancer cells; test: Anti-tumor effect on xenograft tumor model of A549 in nude mice (Example 10);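 on all read-outs here: nude mice bearing A549 xenografts established by inoculating 1.0×10^7 cells in PBS at the right shoulder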; settings: 15 mg/kg i.v. BIW×4W; for Tumor volume: mean ± SE
Method: A549 cells were cultured with a monolayer in vitro in RPMI1640 medium supplied with heat-inactivated fetal bovine serum with a volume ratio of 10%, and an incubator at 37° C. with the air containing CO2 with a proportion of 5%. The tumor cells were passaged with digestion by trypsin-EDTA twice a week. The cells in the exponential growth phase were collected, counted, and used for inoculation.
as §2

[10] = tested on: Calu-6 human lung cancer cell; test: Anti-tumor effect on xenograft tumor model of Calu-6 in nude mice (Example 9);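 on all read-outs here: each nude mouse received 5.0×10^6 Calu-6 cells implanted at the right shoulder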; settings: 15 mg/kg i.v. BIW×4W; for Tumor volume: mean ± SE
Method: Calu-6 cells were cultured with a monolayer in vitro in MEM medium supplied with heat-inactivated fetal bovine serum with a volume ratio of 10%, and an incubator at 37° C. with the air containing CO2 with a proportion of 5%. The tumor cells were passaged with digestion by trypsin-EDTA twice a week. The cells in the exponential growth phase were collected, counted, and used for inoculation.
as §3

[11] = tested on: human hepatoma cell plc/prf/5; test: Anti-tumor effect on subcutaneous transplantation tumor model of plc/prf/5 in NOD/SCID mice (Example 5); format: in vivo, NOD/SCID mouse; settings: for Tumor volume: 10 mg/kg (counted with rapamycin) i.v. Q2W×2W, mean ± SE
Method: The tumor cells were passaged with digestion by trypsin-EDTA twice a week. The cells in the exponential growth phase were collected, counted, and used for inoculation.
1×10^7 of plc/prf/5 tumor cells were suspended in 0.1 ml of mixed solution (PBS:Matrigel=4:1), inoculated to each NOD/SCID mouse at the right shoulder.
Wherein Q2W×2W represents intravenous injection […] for 2 weeks, the same below. (2) Experimental Results

[12] = 5-FU 25 mg/kg, LPR-2 30 and 45 mg/kg
[13] = 15 mg/kg i.v. (QD×5)×2W, vs physiological saline
[14] = 44th day, 15 mg/kg i.v. (QD×5)×2W, Mean ± SEM

O=c1[nH]cc(F)c(=O)[nH]1 [5-FU, reference compound]
toxicity / tolerance (in words) [1, 12]: so toxic with this dosage that all the animals died; also recorded: a significant toxicity and the whole group of animals died | Body weight of animal ([1]; day 10 after inoculation): 19.6 ± 0.3 g | Body weight of animal ([1]; day 17 after inoculation): 14.7 ± 0.5 g | Body weight of animal ([2]; day 20 after inoculation): 19.4 ± 0.4 g | Body weight of animal ([2]; day 23 after inoculation): 19.7 ± 0.3 g | Body weight of animal ([2]; day 27 after inoculation): 18.6 ± 0.3 g | Body weight of animal ([2]; day 30 after inoculation): 18.1 ± 0.3 g | Body weight of animal ([2]; day 34 after inoculation): 18.5 ± 0.4 g | Body weight of animal ([2]; day 37 after inoculation): 18.3 ± 0.3 g | Body weight of animal ([2]; day 41 after inoculation): 18.1 ± 0.3 g | anti-tumor effect (in words) [3, 12]: obvious anti-tumor effect | Tumor volume ([3]; day 10 after inoculation): 170 ± 16 mm^3 | Tumor volume ([3]; day 13 after inoculation): 118 ± 7 mm^3 | Tumor volume ([3]; day 17 after inoculation): 69 ± 4 mm^3 | TGD (to 1,000 mm^3) ([4]; 15 mg/kg i.v. (QD×5)×2W): 6 | T/C (%) RTV [4, 13]: 106% | T/C (%) TW [4, 13]: 109% | anti-tumor effect (in words) ([4]; 5-FU 15 mg/kg, LPR-2 30 and 45 mg/kg): not significant | RTV [4, 14]: 4.53 ± 0.32 | Tumor weight [4, 14]: 1695 ± 289 mg | Tumor volume ([4]; day 16 after inoculation, 15 mg/kg i.v. (QD×5)×2W): 453 ± 66 mm^3 | Tumor volume ([4]; day 20 after inoculation, 15 mg/kg i.v. (QD×5)×2W): 567 ± 84 mm^3 | Tumor volume ([4]; day 23 after inoculation, 15 mg/kg i.v. (QD×5)×2W): 667 ± 105 mm^3 | Tumor volume ([4]; day 27 after inoculation, 15 mg/kg i.v. (QD×5)×2W): 820 ± 149 mm^3 | Tumor volume ([4]; day 30 after inoculation, 15 mg/kg i.v. (QD×5)×2W): 850 ± 150 mm^3 | Tumor volume ([4]; day 34 after inoculation, 15 mg/kg i.v. (QD×5)×2W): 1,123 ± 226 mm^3 | Tumor volume ([4]; day 37 after inoculation, 15 mg/kg i.v. (QD×5)×2W): 1,500 ± 295 mm^3 | Tumor volume ([4]; day 41 after inoculation, 15 mg/kg i.v. (QD×5)×2W): 1,793 ± 342 mm^3 | Tumor volume ([4]; day 44 after inoculation, 15 mg/kg i.v. (QD×5)×2W): 2,114 ± 395 mm^3

CC(=O)O[C@H]1C(=O)[C@@]2(C)[C@H]([C@H](OC(=O)c3ccccc3)[C@]3(O)C[C@H](OC(=O)[C@H](O)[C@@H](NC(=O)c4ccccc4)c4ccccc4)C(C)=C1C3(C)C)[C@]1(OC(C)=O)CO[C@@H]1C[C@@H]2O [Paclitaxel, reference compound]
TGD (to 1,000 mm^3) [5]: 7 | T/C (%) RTV ([5]; vs physiological saline): 59% | T/C (%) TW ([5]; vs physiological saline): 66% | RTV ([5]; 29th day, Mean ± SEM): 9.03 ± 0.93 | Tumor weight ([5]; 29th day, Mean ± SEM): 1053 ± 146 mg | Tumor volume ([5]; day 8 after inoculation): 143 ± 15 mm^3 | Tumor volume ([5]; day 12 after inoculation): 295 ± 42 mm^3 | Tumor volume ([5]; day 15 after inoculation): 400 ± 70 mm^3 | Tumor volume ([5]; day 19 after inoculation): 519 ± 97 mm^3 | Tumor volume ([5]; day 22 after inoculation): 680 ± 110 mm^3 | Tumor volume ([5]; day 26 after inoculation): 944 ± 117 mm^3 | Tumor volume ([5]; day 29 after inoculation): 1,281 ± 184 mm^3 | N, number of surviving animals after completion of the treatment ([6]; 6 animals per group): 6 | Body weight of animal ([6]; day 8 after inoculation): 20.1 ± 0.4 g | Body weight of animal ([6]; day 12 after inoculation): 19.9 ± 0.3 g | Body weight of animal ([6]; day 15 after inoculation): 19.8 ± 0.2 g | Body weight of animal ([6]; day 19 after inoculation): 19.5 ± 0.2 g | Body weight of animal ([6]; day 22 after inoculation): 18.6 ± 0.3 g | N, number of surviving animals after completion of the treatment ([7]; 6 animals per group): 6 | Body weight of animal ([7]; day 24 after inoculation): 20.6 ± 0.4 g | Body weight of animal ([7]; day 28 after inoculation): 20.8 ± 0.4 g | Body weight of animal ([7]; day 31 after inoculation): 20.6 ± 0.4 g | Body weight of animal ([7]; day 35 after inoculation): 20.8 ± 0.5 g | Body weight of animal ([7]; day 38 after inoculation): 20.8 ± 0.6 g | Body weight of animal ([7]; day 42 after inoculation): 21.6 ± 0.6 g | Body weight of animal ([7]; day 45 after inoculation): 21.3 ± 0.6 g | Body weight of animal ([7]; day 49 after inoculation): 21.3 ± 0.7 g | Body weight of animal ([7]; day 52 after inoculation): 21.8 ± 0.6 g | N, number of surviving animals after completion of the treatment ([8]; 6 animals per group): 6 | Body weight of animal ([8]; day 17 after inoculation): 20.5 ± 0.2 g | Body weight of animal ([8]; day 21 after inoculation): 20.5 ± 0.3 g | Body weight of animal ([8]; day 24 after inoculation): 19.6 ± 0.4 g | Body weight of animal ([8]; day 28 after inoculation): 19.8 ± 0.4 g | Body weight of animal ([8]; day 31 after inoculation): 19.7 ± 0.6 g | Body weight of animal ([8]; day 35 after inoculation): 20.1 ± 0.5 g | Body weight of animal ([8]; day 38 after inoculation): 20.1 ± 0.4 g | TGD (to 1,000 mm^3) [9]: >7 | T/C (%) RTV ([9]; vs physiological saline): 24% | T/C (%) TW ([9]; vs physiological saline): 19% | RTV ([9]; 52nd day, Mean ± SEM): 2.35 ± 0.16 | Tumor weight ([9]; 52nd day, Mean ± SEM): 253 ± 52 mg | Tumor volume ([9]; day 24 after inoculation): 138 ± 13 mm^3 | Tumor volume ([9]; day 28 after inoculation): 196 ± 24 mm^3 | Tumor volume ([9]; day 31 after inoculation): 230 ± 35 mm^3 | Tumor volume ([9]; day 35 after inoculation): 260 ± 49 mm^3 | Tumor volume ([9]; day 38 after inoculation): 265 ± 48 mm^3 | Tumor volume ([9]; day 42 after inoculation): 294 ± 41 mm^3 | Tumor volume ([9]; day 45 after inoculation): 327 ± 54 mm^3 | Tumor volume ([9]; day 49 after inoculation): 342 ± 54 mm^3 | Tumor volume ([9]; day 52 after inoculation): 331 ± 49 mm^3 | TGD (to 1,000 mm^3) [10]: >8 | T/C (%) RTV ([10]; vs physiological saline): 16% | T/C (%) TW ([10]; vs physiological saline): 13% | RTV ([10]; 42nd day, Mean ± SEM): 2.31 ± 0.53 | Tumor weight ([10]; 42nd day, Mean ± SEM): 202 ± 52 mg | Tumor volume ([10]; day 14 after inoculation): 138 ± 14 mm^3 | Tumor volume ([10]; day 17 after inoculation): 159 ± 18 mm^3 | Tumor volume ([10]; day 21 after inoculation): 222 ± 23 mm^3 | Tumor volume ([10]; day 24 after inoculation): 219 ± 26 mm^3 | Tumor volume ([10]; day 28 after inoculation): 229 ± 37 mm^3 | Tumor volume ([10]; day 31 after inoculation): 264 ± 53 mm^3 | Tumor volume ([10]; day 35 after inoculation): 281 ± 59 mm^3 | Tumor volume ([10]; day 38 after inoculation): 282 ± 60 mm^3 | Tumor volume ([10]; day 42 after inoculation): 314 ± 72 mm^3

Y-type polyethylene glycol (40K)-glutamic acid dipeptide-rapamycin conjugate [LPR-3]
anti-tumor effect (in words) ([11]; 10 mg/kg counted with rapamycin, i.v. Q2W×2W): stronger antitumor activity than that of polyethylene glycol-rapamycin (LPR-1); also recorded: a certain anti-tumor effect | Days for delaying tumor growth (to 1000 mm^3) ([11]; 10 mg/kg i.v. Q2W×2W): >7 days | Tumor control rate T/C (%) ([11]; 10 mg/kg i.v. Q2W×2W, day 38, vs vehicle control): 47% | Tumor volume ([11]; day 24 after inoculation): 358 ± 62 mm^3 | Tumor volume ([11]; day 27 after inoculation): 455 ± 85 mm^3 | Tumor volume ([11]; day 31 after inoculation): 569 ± 100 mm^3 | Tumor volume ([11]; day 34 after inoculation): 754 ± 151 mm^3 | Tumor volume ([11]; day 38 after inoculation): 848 ± 178 mm^3
